Test system: Hedgehog signaling pathway
Assay: Gli-Luc luciferase reporter gene assay in C3H10T1/2/Gli-Luc cells under Shh-N stimulation
Assay type: cell-based
Settings: Mus musculus, C3H 10T1/2, 24 h, luciferase RLU, read-out: biological activity: IC50 of the inhibitory activities of compounds on the hedgehog pathway
Outline: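 C3H10T1/2 cells stably carrying a Gli-responsive luciferase reporter were stimulated with 30 nM Shh-N conditioned medium plus compound (7-point dilutions, duplicate) for 24 h at 37 °C. Luciferase luminescence read from lysates; IC50 by sigmoidal fit of RLU versus log concentration.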

Row | Structure (SMILES) | IC50 [nM]
1 | Cc1cn(-c2ccc(N3CC(C)N(C(=O)C(C)(C)C)C(C)C3)cc2)c(=O)c2cccc(-c3ccc(C#N)cc3)c12 (stereo not drawn) [Embodiment 25] | 50 to 100
2 | Cc1cc(-c2cccc3c(=O)n(-c4ccc(N5C[C@@H](C)O[C@@H](C)C5)cc4)cc(C)c23)ccc1C#N [Embodiment 61] | 100 to 500
3 | COc1c(C(=O)Nc2ccc(N3C[C@@H](C)O[C@@H](C)C3)cc2)cnc2c(-c3ccc(C#N)cc3)cccc12 [Embodiment 242, 8-(4-cyanophenyl)-N-(4-((2S,6R)-2,6-dimethylmorpholino)phenyl)-4-methoxyquinoline-3-carboxamide] | ≤ 50
4 | C[C@@H]1CN(c2ccc(-c3cnc4c(-c5ccc(C#N)cc5)cncc4c3Cl)cc2)C[C@H](C)O1 [Embodiment 153, 4-(4-chloro-3-(4-((2S,6R)-2,6-dimethylmorpholino)phenyl)-1,6-naphthyridin-8-yl) benzonitrile] | 100 to 500
5 | COc1c(-c2ccc(N3C[C@@H](C)O[C@@H](C)C3)cc2)cnc2c(-c3ccc4c(c3)OCO4)cccc12 [Embodiment 109] | 50 to 100
6 | COc1c(N2CCN(C(=O)Nc3ccncc3)CC2)cnc2c(-c3ccc(C#N)cc3)cccc12 [Embodiment 209] | ≤ 50
7 | C[C@@H]1CN(c2ccc(-c3cnc4c(-c5ccc(C#N)cc5)cncc4c3N(C)C)cc2)C[C@H](C)O1 [Embodiment 155, 4-(4-(dimethylamino)-3-(4-((2S,6R)-2,6-dimethylmorpholino)phenyl)-1,6-naphthyridin-8-yl)benzonitrile] | 100 to 500
8 | COc1c(-c2ccc(N3C[C@H](C)C[C@H](C)C3)cc2)cnc2c(-c3ccc(C#N)cc3)cccc12 [Embodiment 113] | ≤ 50
9 | Cc1cn(-c2ccc(N3C[C@@H](C)O[C@@H](C)C3)cc2)c(=O)c2cccc(-c3ccccc3)c12 [Embodiment 57] | 500 to 1000
10 | Cc1cn(-c2ccc(N3C[C@@H](C)O[C@@H](C)C3)cc2)c(=O)c2cccc(-c3ccc(Br)cc3)c12 [Embodiment 65] | 500 to 1000
11 | C[C@@H]1CN(c2ccc(-c3cnc4c(-c5ccc(C#N)cc5)cccc4c3NS(C)(=O)=O)cc2)C[C@H](C)O1 [Embodiment 130] | 500 to 1000
12 | Cc1cn(-c2ccc(N3CC(C)N(S(C)(=O)=O)C(C)C3)cc2)c(=O)c2cccc(-c3ccc(C#N)cc3)c12 (stereo not drawn) [Embodiment 31] | 100 to 500
13 | C[C@@H]1CN(c2ccc(-c3cnc4c(-c5ccc(C#N)cc5)cccc4c3C#N)cc2)C[C@H](C)O1 [Embodiment 124] | 50 to 100
14 | CCOC(=O)N1[C@H](C)CN(c2ccc(-c3cnc4c(-c5ccc(C#N)cc5)cccc4c3OC)cc2)C[C@@H]1C [Embodiment 183] | 50 to 100
15 | CCOc1c(-c2ccc(N3C[C@@H](C)O[C@@H](C)C3)cc2)cnc2c(-c3ccc(C#N)cc3)cccc12 [Embodiment 143, 4-(3-(4-((2S,6R)-2,6-dimethylmorpholino)phenyl)-4-ethoxyquinolin-8-yl)benzonitrile] | ≤ 50
16 | CS(=O)(=O)CCC(=O)N1CCN(c2cnc3c(-c4ccc(C#N)cc4)cccc3c2C2CC2)CC1 [Embodiment 267, 4-(4-cyclopropyl-3-(4-(3-(methylsulfonyl)-3-propanoyl))quinolin-8-yl) benzonitrile] | ≤ 50
17 | COc1c(-c2ccc(N3C[C@@H](C)O[C@@H](C)C3)cc2)cnc2c1CCCC2(O)c1ccc(C#N)cc1 (stereo partly drawn) [Embodiment 156, 4-(3-(4-((2S,6R)-2,6-dimethylmorpholino)phenyl)-8-hydroxy-4-methoxy-5,6,7,8-tetra hydroquinolin-8-yl)benzonitrile] | 500 to 1000
18 | COc1c(-c2ccc(N3C[C@@H](C)O[C@@H](C)C3)cc2)cnc2c(-c3ccc(C#N)cc3F)cccc12 [Embodiment 104] | ≤ 50
19 | COc1c(-c2ccc(N3C[C@@H](C)O[C@@H](C)C3)nc2C)cnc2c(-c3ccc(C#N)cc3)cccc12 [Embodiment 166, 4-(3-(6-((2S,6R)-2,6-dimethylmorpholino)-2-methylpyridin-3-yl)-4-methoxyquinolin-8-yl)benzonitrile] | ≤ 50
20 | Cc1cc(C#N)ccc1-c1cccc2c(=O)n(-c3ccc(N4C[C@@H](C)O[C@@H](C)C4)cc3)cc(C)c12 [Embodiment 62] | 100 to 500
21 | C[C@@H]1CN(c2ccc(-c3cnc4c(-c5ccccn5)cccc4c3C3CC3)cc2)C[C@H](C)O1 [Embodiment 263, (2S,6R)-4-(5-(4-8-cyclopropyl-(2-pyridinyl)quinolin-3-yl)pyridin-2-yl)-2,6-dimethylmorpholine] | ≤ 50
22 | COc1c(-c2ccc(N3C[C@@H](C)O[C@@H](C)C3)c(F)c2)cnc2c(-c3ccc(C#N)cc3)cccc12 [Embodiment 172] | ≤ 50
23 | Cc1cn(-c2ccc(N3C[C@@H](C)O[C@@H](C)C3)cc2)c(=O)c2cccc(-c3ccc(C#N)cn3)c12 [Embodiment 55] | 1000 to 5000

Row | Structure (SMILES) | IC50 [nM]
24 | COc1c(-c2ccc(N3C[C@@H](C)O[C@@H](C)C3)nc2)cnc2c(-c3ccc(C(F)(F)F)cc3)cccc12 [Embodiment 159] | ≤ 50
25 | CC1CN(c2cnc3c(-c4ccc(C#N)cc4)cccc3c2Br)CCN1c1ccc(C(C)(C)O)cn1 (stereo not drawn) [Embodiment 219, 4-(4-bromo-3-(4-(5-(2-hydroxypropan-2-yl)pyridin-2-yl)-3-methylpiperazin-1-yl)quinolin-8-yl)benzonitrile] | ≤ 50
26 | COc1c(-c2ccc(N3C[C@@H](C)O[C@@H](C)C3)cc2)cnc2c(-c3ccc(C#N)cc3)cccc12 [Embodiment 88, 4-(3-(4-((2S,6R)-2,6-dimethylmorpholino)phenyl)-4-methoxyquinolin-8-yl) benzonitrile] | ≤ 50
27 | Cc1c(-c2ccc(N3C[C@@H](C)O[C@@H](C)C3)cc2)cnc2c(-c3ccc(C#N)cc3)cccc12 [Embodiment 122] | 50 to 100
28 | COc1c(C(=O)Nc2ccc(N3C[C@@H](C)O[C@@H](C)C3)nc2)cnc2c(-c3ccc(C#N)cc3)cccc12 [Embodiment 243, 8-(4-cyanophenyl)-N-(6-((2S,6R)-2,6-dimethylmorpholino)pyridin-3-yl)-4-methoxyquinoline-3-carboxamide] | ≤ 50
29 | CCN1C(C)CN(c2ccc(-n3cc(C)c4c(-c5ccc(C#N)cc5)cccc4c3=O)cc2)CC1C (stereo not drawn) [Embodiment 34] | 100 to 500
30 | COc1c(N2CCN(c3ccc(C(C)(C)O)cn3)C(C)C2)cnc2c(-c3ccc(C#N)cc3)cccc12 (stereo not drawn) [Embodiment 226] | ≤ 50
31 | Cc1cn(-c2ccc(N3CC(C)N(S(=O)(=O)c4ccccc4)C(C)C3)cc2)c(=O)c2cccc(-c3ccc(C#N)cc3)c12 (stereo not drawn) [Embodiment 32] | 100 to 500
32 | Cc1cn(-c2ccc(N3C[C@@H](C)O[C@@H](C)C3)cc2)c(=O)c2nccc(-c3ccc(C#N)cc3)c12 [Embodiment 85, 4-(7-(4-((2S,6R)-2,6-dimethylmorpholino)phenyl)-5-methyl-8-oxo-7,8-dihydro-1,7-naphthyridin-4-yl)benzonitrile] | 500 to 1000
33 | C[C@@H]1CN(c2ccc(-c3cnc4c(-c5ccc(C#N)cc5)cccc4c3C3CC3)cc2)C[C@H](C)O1 [Embodiment 121, 4-(4-cyclopropyl-3-(4-((2S,6R)-2,6-dimethylmorpholino)phenyl)quinolin-8-yl) benzonitrile] | ≤ 50
34 | COc1c(-c2ccc(N3Cc4nnc(C(F)(F)F)n4C(C)C3)cc2)cnc2c(-c3ccc(C#N)cc3)cccc12 (stereo not drawn) [Embodiment 190, 4-(4-methoxy-3-(4-(5-methyl-3-(trifluoromethyl)-5,6-dihydro-[1,2,4]triazolo[4,3-a]pyrazin-7(8H)-yl)phenyl)quinolin-8-yl)benzonitrile] | ≤ 50
35 | COc1c(-c2ccc(N3C[C@@H](C)N(C(=O)c4ccccc4)[C@@H](C)C3)cc2)cnc2c(-c3ccc(C#N)cc3)cccc12 [Embodiment 181] | ≤ 50
36 | COc1c(-c2ccc(N3C[C@@H](C)O[C@@H](C)C3)cc2)cnc2c(C3CCC(C#N)CC3)cccc12 (stereo partly drawn) [Embodiment 116, 4-(3-(4-((2S,6R)-2,6-dimethylmorpholino)phenyl)-4-methoxyquinolin-8-yl) cyclohexane carbonitrile] | 100 to 500
37 | Cc1cn(-c2ccc(N3CCN4CCC[C@H]4C3)cc2)c(=O)c2cccc(-c3ccc(C#N)cc3)c12 [Embodiment 10] | 100 to 500
38 | COc1c(N2CCN(c3cc(C)nc(C)c3)CC2)cnc2c(-c3ccc(C#N)cc3)cccc12 [Embodiment 217, 4-(3-(4-(2,6-dimethylpyridin-4-yl)piperazin-1-yl)-4-methoxyquinolin-8-yl)benzonitrile] | 100 to 500
39 | C[C@H]1CN(c2ccc(-c3cnc4c(-c5ccc(C#N)cc5)cccc4c3C3CC3)cn2)C[C@H](C)O1 [Embodiment 266, 4-(4-cyclopropyl-3-(6-((2S,6S)-2,6-dimethylmorpholino)pyridin-3-yl)quinolin-8-yl) benzonitrile] | ≤ 50
40 | COc1c(-c2ccc(N3C[C@@H](C)N(C(=O)CN)[C@@H](C)C3)nc2)cnc2c(-c3ccc(C#N)cc3)cccc12 [Embodiment 198] | 50 to 100
41 | COc1c(-c2ccc(N3C[C@@H](C)N(C(=O)C(C)(C)O)[C@@H](C)C3)cc2)cnc2c(-c3ccc(C#N)cc3)cccc12 [Embodiment 185] | 100 to 500
42 | Cc1cn(-c2ccc(N3CC(C)(C)C(O)C(C)(C)C3)cc2)c(=O)c2cccc(-c3ccc(C#N)cc3)c12 [Embodiment 39, 4-(2-(4-(4-hydroxy-3,3,5,5-tetramethylpiperidin-1-yl)phenyl)-4-methyl-1-oxo-1,2-dihydroisoquinolin-5-yl)benzonitrile] | ≤ 50
43 | COc1c(-c2ccc(N3C[C@@H](C)O[C@@H](C)C3)nc2)cnc2c(-c3ccc(C#N)cc3)cccc12 [Embodiment 158, 4-(3-(6-((2S,6R)-2,6-dimethylmorpholino)pyridin-3-yl)-4-methoxyquinolin-8-yl) benzonitrile] | ≤ 50
44 | C[C@@H]1CN(c2ccc(-n3ccc4c(-c5ccc(C(F)(F)F)cc5)cccc4c3=O)cc2)C[C@H](C)O1 [Embodiment 74] | 1000 to 5000
45 | C[C@@H]1CN(c2ccc(-c3cnc4c(-c5ccc(OC(F)(F)F)cc5)cccc4c3C3CC3)cn2)C[C@H](C)O1 [Embodiment 265, (2S,6R)-4-(5-(4-cyclopropyl-8-(4-(trifluoromethoxy)phenyl)quinolin-3-yl)pyridin-2-yl)-2,6-dimethylmorpholine] | 50 to 100
